{
  "source": "PubChem BioAssay (NCI)",
  "test_in_all_cases": "NCI-60 cell line screen, 48 h",
  "key": {"[1]": {"tested_on": "786-0 renal"}, "[2]": {"tested_on": "A498 renal"}, "[3]": {"tested_on": "A549 NSCLC"}, "[4]": {"tested_on": "ACHN renal"}, "[5]": {"tested_on": "BT-549 breast"}, "[6]": {"tested_on": "CAKI-1 renal"}, "[7]": {"tested_on": "CCRF-CEM leukemia"}, "[8]": {"tested_on": "COLO 205 colon"}, "[9]": {"tested_on": "DU-145 prostate"}, "[10]": {"tested_on": "EKVX NSCLC"}, "[11]": {"tested_on": "HCC-2998 colon"}, "[12]": {"tested_on": "HCT-116 colon"}, "[13]": {"tested_on": "HCT-15 colon"}, "[14]": {"tested_on": "HL-60(TB) leukemia"}, "[15]": {"tested_on": "HOP-62 NSCLC"}, "[16]": {"tested_on": "HOP-92 NSCLC"}, "[17]": {"tested_on": "HS 578T breast"}, "[18]": {"tested_on": "HT29 colon"}, "[19]": {"tested_on": "IGROV1 ovarian"}, "[20]": {"tested_on": "KM12 colon"}, "[21]": {"tested_on": "LOX IMVI melanoma"}, "[22]": {"tested_on": "M14 melanoma"}, "[23]": {"tested_on": "MALME-3M melanoma"}, "[24]": {"tested_on": "MCF7 breast"}, "[25]": {"tested_on": "MDA-MB-231 breast"}, "[26]": {"tested_on": "MDA-MB-435"}, "[27]": {"tested_on": "MOLT-4 leukemia"}, "[28]": {"tested_on": "NCI-H226 lung"}},
  "note": "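A five-concentration, 48-hour dose response in 96-well plates underlies each endpoint, interpolated linearly between surrounding concentrations. At the GI50, growth is halved. The concentration for full growth arrest is given as TGI.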",
  "data": [
    {"smiles": "CCCCCCCCNC(=O)c1ccc(Cn2c(CCCC)nc3c(N)nc4ccccc4c32)cc1", "values": [
      {"measurement": "GI50", "setting": "[1]", "result": 1.71, "unit": "µM"},
      {"measurement": "TGI", "setting": "[1]", "result": 3.34, "unit": "µM"},
      {"measurement": "GI50", "setting": "[2]", "result": 2.35, "unit": "µM"},
      {"measurement": "TGI", "setting": "[2]", "result": 11.3, "unit": "µM"},
      {"measurement": "GI50", "setting": "[3]", "result": 3.16, "unit": "µM"},
      {"measurement": "TGI", "setting": "[3]", "result": 12.3, "unit": "µM"},
      {"measurement": "GI50", "setting": "[4]", "result": 1.72, "unit": "µM"},
      {"measurement": "TGI", "setting": "[4]", "result": 3.66, "unit": "µM"},
      {"measurement": "GI50", "setting": "[5]", "result": 1.91, "unit": "µM"},
      {"measurement": "TGI", "setting": "[5]", "result": 4.14, "unit": "µM"},
      {"measurement": "GI50", "setting": "[6]", "result": 1.65, "unit": "µM"},
      {"measurement": "TGI", "setting": "[6]", "result": 6.24, "unit": "µM"},
      {"measurement": "GI50", "setting": "[7]", "result": 1.73, "unit": "µM"},
      {"measurement": "TGI", "setting": "[7]", "result": 4.96, "unit": "µM"},
      {"measurement": "GI50", "setting": "[8]", "result": 2.04, "unit": "µM"},
      {"measurement": "TGI", "setting": "[8]", "result": 4.33, "unit": "µM"},
      {"measurement": "GI50", "setting": "[9]", "result": 3.5, "unit": "µM"},
      {"measurement": "TGI", "setting": "[9]", "result": 12.1, "unit": "µM"},
      {"measurement": "GI50", "setting": "[10]", "result": 2.85, "unit": "µM"},
      {"measurement": "TGI", "setting": "[10]", "result": 17.2, "unit": "µM"},
      {"measurement": "GI50", "setting": "[11]", "result": 2.22, "unit": "µM"},
      {"measurement": "TGI", "setting": "[11]", "result": 5.39, "unit": "µM"},
      {"measurement": "GI50", "setting": "[12]", "result": 1.08, "unit": "µM"},
      {"measurement": "TGI", "setting": "[12]", "result": 2.47, "unit": "µM"},
      {"measurement": "GI50", "setting": "[13]", "result": 1.7, "unit": "µM"},
      {"measurement": "TGI", "setting": "[13]", "result": 3.87, "unit": "µM"},
      {"measurement": "GI50", "setting": "[14]", "result": 1.83, "unit": "µM"},
      {"measurement": "TGI", "setting": "[14]", "result": 4.61, "unit": "µM"},
      {"measurement": "GI50", "setting": "[15]", "result": 2.57, "unit": "µM"},
      {"measurement": "TGI", "setting": "[15]", "result": 11.1, "unit": "µM"},
      {"measurement": "GI50", "setting": "[16]", "result": 0.0269, "unit": "µM"},
      {"measurement": "TGI", "setting": "[16]", "result": 0.838, "unit": "µM"},
      {"measurement": "GI50", "setting": "[17]", "result": 1.96, "unit": "µM"},
      {"measurement": "TGI", "setting": "[17]", "result": 4.33, "unit": "µM"},
      {"measurement": "GI50", "setting": "[18]", "result": 2.49, "unit": "µM"},
      {"measurement": "TGI", "setting": "[18]", "result": 7.16, "unit": "µM"},
      {"measurement": "GI50", "setting": "[19]", "result": 1.6, "unit": "µM"},
      {"measurement": "TGI", "setting": "[19]", "result": 4.49, "unit": "µM"},
      {"measurement": "GI50", "setting": "[20]", "result": 2.49, "unit": "µM"},
      {"measurement": "TGI", "setting": "[20]", "result": 6.52, "unit": "µM"},
      {"measurement": "GI50", "setting": "[21]", "result": 1.42, "unit": "µM"},
      {"measurement": "TGI", "setting": "[21]", "result": 2.82, "unit": "µM"},
      {"measurement": "GI50", "setting": "[22]", "result": 1.74, "unit": "µM"},
      {"measurement": "TGI", "setting": "[22]", "result": 3.48, "unit": "µM"},
      {"measurement": "GI50", "setting": "[23]", "result": 1.8, "unit": "µM"},
      {"measurement": "TGI", "setting": "[23]", "result": 3.51, "unit": "µM"},
      {"measurement": "GI50", "setting": "[24]", "result": 1.59, "unit": "µM"},
      {"measurement": "TGI", "setting": "[24]", "result": 3.57, "unit": "µM"},
      {"measurement": "GI50", "setting": "[25]", "result": 1.54, "unit": "µM"},
      {"measurement": "TGI", "setting": "[25]", "result": 3.55, "unit": "µM"},
      {"measurement": "GI50", "setting": "[26]", "result": 1.69, "unit": "µM"},
      {"measurement": "TGI", "setting": "[26]", "result": 3.11, "unit": "µM"},
      {"measurement": "GI50", "setting": "[27]", "result": 2.44, "unit": "µM"},
      {"measurement": "TGI", "setting": "[27]", "result": 8.71, "unit": "µM"},
      {"measurement": "GI50", "setting": "[28]", "result": 14.5, "unit": "µM"},
      {"measurement": "TGI", "setting": "[28]", "result": 41.4, "unit": "µM"}
    ]}
  ]
}
